Experimental data as given in ChEMBL document CHEMBL1201862, “PubChem BioAssay data set” (2004).
Activity calls are given as the source filed them.

How the values were obtained:
[1] = molecular target: Protein-tyrosine kinase 2-beta (Homo sapiens, UniProt Q14289);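 further: potency of inhibitors of PYK2 kinase phosphorylation of poly-GT substrate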
Cytochrome P450 2C9 = Cytochrome P450 2C9 (Homo sapiens, UniProt P11712)
Cytochrome P450 2C19 = Cytochrome P450 2C19 (Homo sapiens, UniProt P33261); experiment: Cytochrome panel assay with activity outcomes. Panel member name: p450-cyp2c19 Compounds with AC50 equal or less than 10 uM are considered active; type: functional; settings: read-out: AC50
Chain of Cytochrome P450 2C19 (P33261 whole entry): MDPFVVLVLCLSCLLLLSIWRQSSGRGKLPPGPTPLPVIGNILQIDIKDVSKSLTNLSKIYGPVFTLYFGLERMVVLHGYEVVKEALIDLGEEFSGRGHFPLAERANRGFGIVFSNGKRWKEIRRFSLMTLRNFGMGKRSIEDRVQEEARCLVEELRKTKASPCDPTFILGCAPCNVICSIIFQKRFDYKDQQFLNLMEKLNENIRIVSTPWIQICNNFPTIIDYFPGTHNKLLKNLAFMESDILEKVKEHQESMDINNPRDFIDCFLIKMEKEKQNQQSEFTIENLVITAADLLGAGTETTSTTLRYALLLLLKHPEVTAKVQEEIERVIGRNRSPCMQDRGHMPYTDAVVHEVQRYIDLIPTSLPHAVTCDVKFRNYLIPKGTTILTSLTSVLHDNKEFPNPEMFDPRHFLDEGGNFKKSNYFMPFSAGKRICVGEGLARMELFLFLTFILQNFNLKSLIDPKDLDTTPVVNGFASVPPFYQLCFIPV

Cytochrome P450 1A2 = molecular target: T1, Cytochrome P450 1A2 (Homo sapiens, UniProt P05177);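 further: PubChem cytochrome P450 panel assay, CYP1A2 panel member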
T1 sequence (P05177 whole entry): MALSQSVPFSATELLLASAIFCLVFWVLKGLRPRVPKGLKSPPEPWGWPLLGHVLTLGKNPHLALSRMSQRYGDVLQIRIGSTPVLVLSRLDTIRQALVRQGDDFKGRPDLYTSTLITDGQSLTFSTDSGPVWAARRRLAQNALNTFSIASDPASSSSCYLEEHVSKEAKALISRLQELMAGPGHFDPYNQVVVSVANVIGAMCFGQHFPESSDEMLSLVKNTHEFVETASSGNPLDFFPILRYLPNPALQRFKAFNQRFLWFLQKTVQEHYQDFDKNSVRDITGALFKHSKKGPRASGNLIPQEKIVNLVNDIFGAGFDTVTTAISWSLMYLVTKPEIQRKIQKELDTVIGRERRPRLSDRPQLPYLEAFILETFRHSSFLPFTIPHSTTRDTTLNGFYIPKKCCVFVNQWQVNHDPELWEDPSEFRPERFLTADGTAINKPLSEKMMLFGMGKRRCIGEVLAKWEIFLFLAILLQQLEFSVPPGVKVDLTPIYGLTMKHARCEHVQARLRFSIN

[2] = molecular target: DNA dC->dU-editing enzyme APOBEC-3G (Homo sapiens, UniProt Q9HC16); type: functional;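 further: Dose-response counterscreen measuring inhibition of APOBEC3G DNA deaminase activity, run while confirming APOBEC3A inhibitors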
Chain of DNA dC->dU-editing enzyme APOBEC-3G (Q9HC16 whole entry): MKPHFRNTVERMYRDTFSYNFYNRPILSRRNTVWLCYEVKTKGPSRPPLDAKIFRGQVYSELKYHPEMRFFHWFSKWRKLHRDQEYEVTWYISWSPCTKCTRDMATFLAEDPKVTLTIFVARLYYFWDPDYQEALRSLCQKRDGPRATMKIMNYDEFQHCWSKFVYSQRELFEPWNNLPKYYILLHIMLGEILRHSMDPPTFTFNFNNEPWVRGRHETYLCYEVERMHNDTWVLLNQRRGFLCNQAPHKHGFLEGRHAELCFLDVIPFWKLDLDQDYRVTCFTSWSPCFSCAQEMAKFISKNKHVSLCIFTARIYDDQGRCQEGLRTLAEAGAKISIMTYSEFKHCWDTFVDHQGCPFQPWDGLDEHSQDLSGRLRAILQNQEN

[3] = molecular target: T2, Histone-lysine N-methyltransferase NSD2 (Homo sapiens, UniProt O96028); type: biochemical
T2 sequence (O96028 whole entry): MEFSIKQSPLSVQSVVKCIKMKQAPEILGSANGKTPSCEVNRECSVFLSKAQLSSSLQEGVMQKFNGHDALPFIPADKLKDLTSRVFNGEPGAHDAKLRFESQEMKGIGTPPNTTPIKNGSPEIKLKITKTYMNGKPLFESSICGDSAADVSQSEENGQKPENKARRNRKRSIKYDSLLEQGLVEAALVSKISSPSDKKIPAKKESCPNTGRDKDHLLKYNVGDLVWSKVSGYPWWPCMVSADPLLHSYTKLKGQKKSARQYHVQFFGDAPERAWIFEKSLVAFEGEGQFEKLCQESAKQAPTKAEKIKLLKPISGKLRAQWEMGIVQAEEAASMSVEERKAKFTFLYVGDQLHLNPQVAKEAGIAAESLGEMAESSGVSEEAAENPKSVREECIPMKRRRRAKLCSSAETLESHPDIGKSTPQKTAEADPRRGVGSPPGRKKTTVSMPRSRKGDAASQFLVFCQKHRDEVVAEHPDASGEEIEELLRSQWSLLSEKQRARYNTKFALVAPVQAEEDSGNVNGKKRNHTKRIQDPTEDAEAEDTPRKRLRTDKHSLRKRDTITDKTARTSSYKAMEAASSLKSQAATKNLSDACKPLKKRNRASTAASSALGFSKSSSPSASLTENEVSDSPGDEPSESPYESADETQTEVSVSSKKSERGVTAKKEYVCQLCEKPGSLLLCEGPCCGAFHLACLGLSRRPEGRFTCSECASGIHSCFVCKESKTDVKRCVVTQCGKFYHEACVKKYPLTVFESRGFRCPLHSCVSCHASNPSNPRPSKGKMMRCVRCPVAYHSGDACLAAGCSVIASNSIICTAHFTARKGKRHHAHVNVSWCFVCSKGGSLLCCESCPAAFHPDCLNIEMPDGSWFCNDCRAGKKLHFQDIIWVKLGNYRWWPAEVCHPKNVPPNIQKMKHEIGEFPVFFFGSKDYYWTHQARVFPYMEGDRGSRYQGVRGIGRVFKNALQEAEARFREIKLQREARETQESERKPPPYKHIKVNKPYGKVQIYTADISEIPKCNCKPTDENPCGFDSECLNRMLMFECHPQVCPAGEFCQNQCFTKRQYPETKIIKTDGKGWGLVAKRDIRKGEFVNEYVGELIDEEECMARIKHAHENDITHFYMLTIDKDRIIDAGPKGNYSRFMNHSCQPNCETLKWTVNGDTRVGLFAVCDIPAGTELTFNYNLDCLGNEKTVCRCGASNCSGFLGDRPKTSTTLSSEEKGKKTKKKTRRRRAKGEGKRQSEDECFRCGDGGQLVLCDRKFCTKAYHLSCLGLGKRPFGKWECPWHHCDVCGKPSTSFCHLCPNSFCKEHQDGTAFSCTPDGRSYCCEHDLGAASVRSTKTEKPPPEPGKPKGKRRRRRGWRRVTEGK

[4] = molecular target: Bifunctional protein GlmU (Mycobacterium tuberculosis, UniProt P9WMN3); experiment: Inhibitors of Mycobacterial Glucosamine-1-phosphate acetyl transferase (GlmU). Secondary screen.; design: species or system Mycobacterium tuberculosis H37Rv
Chain of Bifunctional protein GlmU (P9WMN3 whole entry, the tested form may be a part): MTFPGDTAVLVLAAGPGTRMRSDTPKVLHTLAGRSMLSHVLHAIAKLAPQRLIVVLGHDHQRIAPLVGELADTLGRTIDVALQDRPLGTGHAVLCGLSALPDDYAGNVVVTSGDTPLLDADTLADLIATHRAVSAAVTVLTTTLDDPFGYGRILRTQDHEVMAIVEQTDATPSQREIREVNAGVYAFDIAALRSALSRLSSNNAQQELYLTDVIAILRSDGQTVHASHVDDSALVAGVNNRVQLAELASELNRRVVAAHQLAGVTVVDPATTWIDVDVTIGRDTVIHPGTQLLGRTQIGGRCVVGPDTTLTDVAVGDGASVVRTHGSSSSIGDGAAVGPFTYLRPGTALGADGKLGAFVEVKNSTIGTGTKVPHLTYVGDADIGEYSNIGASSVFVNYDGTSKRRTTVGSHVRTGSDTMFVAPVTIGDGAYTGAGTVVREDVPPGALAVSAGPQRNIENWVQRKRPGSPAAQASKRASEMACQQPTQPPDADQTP

[5] = molecular target: T3, Carboxy-terminal domain RNA polymerase II polypeptide A small phosphatase 1 (Homo sapiens, UniProt Q9GZU7); experiment: CTDSP1 inhibitors, concentration-response, biochemical, absorbance readout, ultra-high-throughput screen actives (AID 540297); type: functional
T3 sequence (Q9GZU7 whole entry): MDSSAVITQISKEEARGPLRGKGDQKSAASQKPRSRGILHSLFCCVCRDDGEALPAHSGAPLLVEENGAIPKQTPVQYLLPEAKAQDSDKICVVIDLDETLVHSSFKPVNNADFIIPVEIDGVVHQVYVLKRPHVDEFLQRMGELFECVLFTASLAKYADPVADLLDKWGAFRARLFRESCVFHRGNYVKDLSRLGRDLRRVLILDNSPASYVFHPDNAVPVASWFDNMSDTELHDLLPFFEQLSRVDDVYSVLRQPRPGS

[6] = molecular target: DNA dC->dU-editing enzyme APOBEC-3A (Homo sapiens, UniProt P31941); experiment: Dose Response confirmation of small molecule APOBEC3A DNA Deaminase Inhibitors via a fluorescence-based single-stranded DNA deaminase assay. [Related pubchem assays (depositor defined):AID493011, AID493024]; type: functional
Chain of DNA dC->dU-editing enzyme APOBEC-3A (P31941 whole entry, the tested form may be a part): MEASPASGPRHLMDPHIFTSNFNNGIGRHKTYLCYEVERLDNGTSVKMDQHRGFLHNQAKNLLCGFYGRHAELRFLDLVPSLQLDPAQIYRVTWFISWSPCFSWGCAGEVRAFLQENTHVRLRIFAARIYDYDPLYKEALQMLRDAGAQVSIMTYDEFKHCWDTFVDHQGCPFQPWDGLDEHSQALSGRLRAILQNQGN

[7] = molecular target: T4, RNA-binding protein pos-1 (Caenorhabditis elegans, UniProt G5EF15); experiment: disruptors of C. elegans POS-1 RNA interaction – biochemical, fluorescence polarization, dose response (AID 1964);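 further: purified POS-1 fused to maltose binding protein made in E. coli; potency of compounds blocking POS-1 binding to fluorescent RNA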
T4 sequence (G5EF15 whole entry): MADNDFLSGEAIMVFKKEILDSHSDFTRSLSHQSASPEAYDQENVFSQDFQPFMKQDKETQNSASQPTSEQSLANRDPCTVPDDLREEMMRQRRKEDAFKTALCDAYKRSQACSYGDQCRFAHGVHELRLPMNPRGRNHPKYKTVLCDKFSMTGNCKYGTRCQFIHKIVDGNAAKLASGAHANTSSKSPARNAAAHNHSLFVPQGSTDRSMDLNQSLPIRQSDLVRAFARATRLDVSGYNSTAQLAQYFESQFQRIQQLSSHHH

Leucine aminopeptidase = molecular target: T5, Leucine aminopeptidase (Plasmodium falciparum 3D7, UniProt Q8IL11); experiment: P. falciparum M17LAP inhibitors, primary screen, biochemical, fluorogenic H-Leu-NHMec substrate, 1536-well (AID 1619); type: functional
T5 sequence (Q8IL11 whole entry): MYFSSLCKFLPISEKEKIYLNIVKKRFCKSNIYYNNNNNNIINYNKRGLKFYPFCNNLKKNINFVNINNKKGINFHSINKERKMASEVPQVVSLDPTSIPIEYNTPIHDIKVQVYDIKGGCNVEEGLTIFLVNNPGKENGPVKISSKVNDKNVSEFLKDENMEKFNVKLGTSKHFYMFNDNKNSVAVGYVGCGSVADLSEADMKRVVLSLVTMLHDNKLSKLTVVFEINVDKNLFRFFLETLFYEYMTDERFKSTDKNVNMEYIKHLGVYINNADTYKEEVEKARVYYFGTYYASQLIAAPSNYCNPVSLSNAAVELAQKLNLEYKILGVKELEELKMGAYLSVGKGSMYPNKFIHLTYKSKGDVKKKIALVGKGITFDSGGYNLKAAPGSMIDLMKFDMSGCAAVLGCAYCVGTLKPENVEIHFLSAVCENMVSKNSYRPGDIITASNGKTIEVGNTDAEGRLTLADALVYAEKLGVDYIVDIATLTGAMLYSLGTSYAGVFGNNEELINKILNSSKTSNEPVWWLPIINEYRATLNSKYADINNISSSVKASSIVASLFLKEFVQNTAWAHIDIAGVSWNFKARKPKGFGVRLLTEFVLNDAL

[8] = molecular target: T6, Mannose-6-phosphate isomerase (Homo sapiens, UniProt P34949); experiment: MPI enzyme activity inhibition – biochemical, fluorescence intensity, coupled assay, primary screen (AID 1209)
T6 sequence (P34949 whole entry): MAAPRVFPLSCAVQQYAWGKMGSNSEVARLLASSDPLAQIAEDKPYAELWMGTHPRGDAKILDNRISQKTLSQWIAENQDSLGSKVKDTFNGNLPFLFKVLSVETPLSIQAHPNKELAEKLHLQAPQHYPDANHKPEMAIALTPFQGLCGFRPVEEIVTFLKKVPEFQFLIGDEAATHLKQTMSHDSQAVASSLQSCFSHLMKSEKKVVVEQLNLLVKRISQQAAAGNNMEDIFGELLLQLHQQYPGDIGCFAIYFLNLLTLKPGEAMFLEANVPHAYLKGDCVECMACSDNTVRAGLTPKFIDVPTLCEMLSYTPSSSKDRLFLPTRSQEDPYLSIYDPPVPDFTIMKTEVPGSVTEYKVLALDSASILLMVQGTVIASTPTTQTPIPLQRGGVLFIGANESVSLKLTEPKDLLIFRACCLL

[9] = Luminescent dose response cell-based high throughput screening assay for inhibitors of the Janus kinase 2 mutant JAK2V617F. [Related pubchem assays: 1446 (Primary screen.), 1521 (Confirmation assay.), 1486 (Counter screen.)]; type: functional
[10] = molecular target: T7, Heat shock factor protein 1 (Mus musculus, UniProt P38532); experiment: enhancement of HSF1-driven luciferase signal – cell-based, NIH3T3, luminescence, dose retest, confirmation (AID 435004); type: functional;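 further: stress induced by proteasome inhibitor MG132 added 30 min after compound; luciferase reporter driven by HSF1 response element in NIH3T3 cells; actives raise luminescence as potentiators of the MG132 stress response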
T7 sequence (P38532 whole entry): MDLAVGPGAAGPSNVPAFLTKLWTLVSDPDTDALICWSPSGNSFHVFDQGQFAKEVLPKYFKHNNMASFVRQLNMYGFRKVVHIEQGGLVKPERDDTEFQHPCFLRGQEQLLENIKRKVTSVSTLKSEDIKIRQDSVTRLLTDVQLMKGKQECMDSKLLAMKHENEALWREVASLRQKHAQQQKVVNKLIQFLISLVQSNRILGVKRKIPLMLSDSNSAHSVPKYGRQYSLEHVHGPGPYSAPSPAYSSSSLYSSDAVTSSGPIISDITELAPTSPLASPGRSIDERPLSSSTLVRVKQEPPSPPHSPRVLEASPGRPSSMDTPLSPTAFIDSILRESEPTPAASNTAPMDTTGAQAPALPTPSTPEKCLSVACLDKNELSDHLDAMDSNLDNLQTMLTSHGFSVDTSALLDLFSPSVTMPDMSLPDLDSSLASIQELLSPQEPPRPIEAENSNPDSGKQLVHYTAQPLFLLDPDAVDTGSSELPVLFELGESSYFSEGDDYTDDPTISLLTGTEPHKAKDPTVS

Chain of Protein-tyrosine kinase 2-beta (Q14289 whole entry): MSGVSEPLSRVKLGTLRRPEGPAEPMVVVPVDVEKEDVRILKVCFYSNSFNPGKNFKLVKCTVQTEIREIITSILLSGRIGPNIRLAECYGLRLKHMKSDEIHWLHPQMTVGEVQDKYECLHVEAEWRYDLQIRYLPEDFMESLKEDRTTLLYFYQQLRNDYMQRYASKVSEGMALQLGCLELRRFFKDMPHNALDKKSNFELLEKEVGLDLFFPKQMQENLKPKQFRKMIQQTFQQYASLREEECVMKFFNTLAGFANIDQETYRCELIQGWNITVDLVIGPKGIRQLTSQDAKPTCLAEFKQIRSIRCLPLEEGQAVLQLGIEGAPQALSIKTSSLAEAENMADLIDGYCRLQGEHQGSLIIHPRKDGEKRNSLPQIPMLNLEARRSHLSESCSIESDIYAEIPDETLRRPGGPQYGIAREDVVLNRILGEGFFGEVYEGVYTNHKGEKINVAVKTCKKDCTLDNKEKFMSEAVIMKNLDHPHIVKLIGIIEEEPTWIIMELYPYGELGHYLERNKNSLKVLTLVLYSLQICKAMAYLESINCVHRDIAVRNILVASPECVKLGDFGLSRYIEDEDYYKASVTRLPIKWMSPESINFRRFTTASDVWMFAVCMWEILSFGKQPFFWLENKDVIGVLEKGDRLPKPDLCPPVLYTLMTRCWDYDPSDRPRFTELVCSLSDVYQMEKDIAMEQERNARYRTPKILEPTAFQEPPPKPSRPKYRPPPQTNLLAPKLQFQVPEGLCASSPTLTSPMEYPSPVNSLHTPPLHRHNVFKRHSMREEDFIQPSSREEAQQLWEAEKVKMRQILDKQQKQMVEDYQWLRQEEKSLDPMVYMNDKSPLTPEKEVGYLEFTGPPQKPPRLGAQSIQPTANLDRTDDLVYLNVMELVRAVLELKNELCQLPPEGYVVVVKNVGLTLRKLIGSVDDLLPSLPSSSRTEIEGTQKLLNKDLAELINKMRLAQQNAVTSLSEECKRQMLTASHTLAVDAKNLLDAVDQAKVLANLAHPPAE
Chain of Cytochrome P450 2C9 (P11712 whole entry): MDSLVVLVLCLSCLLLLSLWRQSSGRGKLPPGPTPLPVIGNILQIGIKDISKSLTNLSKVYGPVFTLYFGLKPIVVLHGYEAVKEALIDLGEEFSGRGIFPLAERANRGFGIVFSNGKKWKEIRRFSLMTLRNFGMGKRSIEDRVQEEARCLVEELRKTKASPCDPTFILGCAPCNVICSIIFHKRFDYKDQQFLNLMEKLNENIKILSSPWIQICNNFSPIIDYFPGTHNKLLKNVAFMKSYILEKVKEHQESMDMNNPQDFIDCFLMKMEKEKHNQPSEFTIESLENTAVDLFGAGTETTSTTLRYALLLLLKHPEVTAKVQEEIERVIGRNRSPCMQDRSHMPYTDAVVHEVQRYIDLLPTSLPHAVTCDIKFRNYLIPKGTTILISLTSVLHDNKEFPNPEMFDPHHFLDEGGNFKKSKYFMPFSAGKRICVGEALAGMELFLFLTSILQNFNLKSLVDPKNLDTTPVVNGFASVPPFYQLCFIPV

Which IC50 [1] does the source give for `N#Cc1ccccc1/C=N/Nc1nc(-c2ccccc2)c2cc(Cl)ccc2n1` here?
Its IC50 is > 69.5 µM (not active).

And the AC50 (Cytochrome P450 2C9)?
The AC50 was 2.24 µM (inconclusive).

What about the AC50 (Cytochrome P450 2C19) of the same compound?
Its AC50 is 25.1 µM (inconclusive).

And the AC50 (Cytochrome P450 1A2)?
The AC50 was 7.08 µM (inconclusive).

What does the source list for `Cc1cc(/C=N/NC(=O)c2cccc(N(C)C)c2)c(C)n1-c1cc(C(=O)O)cc(C(=O)O)c1`?
IC50 [2]: 20.6 µM (active); AC50 [3]: > 20 µM (inactive); IC50 [4]: 166 µM (active); IC50 [5]: 2.07 µM (active); IC50 [6]: 9.31 µM (active); EC50 [7]: > 300 µM (not active)

With `O=C(Nc1ccc(Oc2ccc(C(=O)O)c(C(=O)O)c2)cc1)c1cccs1` as the compound, how does the IC50 [4] read?
The IC50 was 97.3 µM (active).

And the IC50 (Leucine aminopeptidase)?
Its IC50 is 30.7 µM (active).

Which IC50 [1] does the source give for `O=[N+]([O-])c1cccc(/C=C/c2nc3cc([N+](=O)[O-])ccc3[nH]2)c1` here?
Its IC50 is 20 µM (not active).

With `C[N+]12CCC(CC1)C(C#N)(N1CCOCC1)C2` (centres undefined) as the compound, how does the IC50 [2] read?
The IC50 was 4.38 µM (active).

What about the IC50 [8] of the same compound?
Its IC50 is > 50 µM (not active).

And the IC50 [6]?
The IC50 was 4.57 µM (active).

Which IC50 [9] does the source give for `COC(=O)COc1cccc2c(=O)n(CC(=O)NCc3ccc(F)cc3)ccc12` here?
Its IC50 is 1.14 µM (active).

With `O=C(/C(=N/N=C/c1ccc(O)c(O)c1)c1ccccc1)c1ccccc1` as the compound, how does the EC50 [10] read?
Its EC50 is > 260 µM (inactive).

And the IC50 [9]?
The IC50 was 1.8 µM (active).
